Test results: PubChem BioAssay AID330 (DTP/NCI, 2004)
“And” between values parts separate entries of the source, which are not always exact repeats. Equal values may be shown once. Inconclusive results and toxic doses are left out. Rule for the calls: active = survival T/C of 150% or more; inactive = T/C below 125% in these data.

Test system: P388 leukemia ip, CD2F1 mice, survival T/C
Assay: NCI In Vivo Anticancer Drug Screen. Data for tumor model P388 Leukemia (intraperitoneal) in CD2F1 (CDF1) mice
Settings: endpoint: median survival time, higher = longer survival
Method in brief: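 Mice carrying the transplanted tumor received test compound or vehicle. Survival was recorded in each group, and the value is the treated-group measurement divided by that of the vehicle-treated control group.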

[1] = dose: 25.0 mg/kg/injection, schedule: Q01DX009 (ip), vehicle: other
[2] = dose: 50.0 mg/kg/injection, schedule: Q01DX009 (ip), vehicle: other
[3] = dose: 100.0 mg/kg/injection, schedule: Q01DX009 (ip), vehicle: other
[4] = dose: 200.0 mg/kg/injection, schedule: Q01DX009 (ip), vehicle: other
[5] = dose: 50.0 mg/kg/injection, schedule: Q01DX009 (ip), vehicle: saline with Tween-80
[6] = dose: 100.0 mg/kg/injection, schedule: Q01DX009 (ip), vehicle: saline with Tween-80
[7] = dose: 200.0 mg/kg/injection, schedule: Q01DX009 (ip), vehicle: saline with Tween-80
[8] = dose: 12.5 mg/kg/injection, schedule: Q01DX009 (ip), vehicle: saline with Tween-80
[9] = dose: 25.0 mg/kg/injection, schedule: Q01DX009 (ip), vehicle: saline with Tween-80
[10] = dose: 60.0 mg/kg/injection, schedule: Q01DX005 (ip), vehicle: saline with Tween-80
[11] = dose: 120.0 mg/kg/injection, schedule: Q01DX005 (ip), vehicle: saline with Tween-80
[12] = dose: 50.0 mg/kg/injection, schedule: Q01DX009 (ip), vehicle: Klucel (hydroxypropylcellulose) (HPC)
[13] = dose: 100.0 mg/kg/injection, schedule: Q01DX009 (ip), vehicle: Klucel (hydroxypropylcellulose) (HPC)
[14] = dose: 200.0 mg/kg/injection, schedule: Q01DX009 (ip), vehicle: Klucel (hydroxypropylcellulose) (HPC)
[15] = dose: 50.0 mg/kg/injection, schedule: Q01DX009 (ip), vehicle: saline
[16] = dose: 100.0 mg/kg/injection, schedule: Q01DX009 (ip), vehicle: saline
[17] = dose: 200.0 mg/kg/injection, schedule: Q01DX009 (ip), vehicle: saline
[18] = dose: 50.0 mg/kg/injection, schedule: Q01DX005 (ip), vehicle: saline with Tween-80
[19] = dose: 100.0 mg/kg/injection, schedule: Q01DX005 (ip), vehicle: saline with Tween-80
[20] = dose: 200.0 mg/kg/injection, schedule: Q01DX005 (ip), vehicle: saline with Tween-80
[21] = dose: 50.0 mg/kg/injection, schedule: Q01DX005 (ip), vehicle: Klucel (hydroxypropylcellulose) (HPC)
[22] = dose: 100.0 mg/kg/injection, schedule: Q01DX005 (ip), vehicle: Klucel (hydroxypropylcellulose) (HPC)
[23] = dose: 200.0 mg/kg/injection, schedule: Q01DX005 (ip), vehicle: Klucel (hydroxypropylcellulose) (HPC)

Measured: T/C

O=[N+]([O-])c1c(Cl)cc(Cl)c(-c2c(Cl)cc(Cl)c([N+](=O)[O-])c2Cl)c1Cl
inactive: [1] 102 % of control | [2] 106 % of control | [3] 107 % of control | [4] 106 % of control | dose: 400.0 mg/kg/injection, schedule: Q01DX009 (ip), vehicle: other 105 % of control

O=C(O)c1cc(C(=O)C(=O)c2cc(C(=O)O)c(O)c3ccccc23)c2ccccc2c1O
inactive: [5] 95 % of control | [6] 95 % of control | [7] 101 % of control

CNC(=S)N/N=C/c1ccc([N+](=O)[O-])s1
inactive: dose: 6.25 mg/kg/injection, schedule: Q01DX009 (ip), vehicle: saline with Tween-80 99 % of control | [8] 89 % of control | [9] 88 % of control

N#C/C(=C\Nc1ccccn1)C(=O)c1ccco1
inactive: [10] 91 % of control | [11] 100 % of control

COc1ccc(C(=O)N2CC(O)=CC2=O)cc1
inactive: [12] 105 % of control | [13] 107 % of control | [14] 92 % of control

O=C1NC(Cc2ccccc2)C(=O)N2CCCC12 (centres undefined)
inactive: [15] 100 % of control | [16] 96 % of control | [17] 101 % of control

CC(=O)O.[Cd]
inactive: dose: 1.25 mg/kg/injection, schedule: Q01DX009 (ip), vehicle: saline 95 % of control | dose: 1.25 mg/kg/injection, schedule: Q04DX003 (ip), vehicle: saline 90 % of control | dose: 2.5 mg/kg/injection, schedule: Q01DX009 (ip), vehicle: saline 100 % of control | dose: 2.5 mg/kg/injection, schedule: Q04DX003 (ip), vehicle: saline 90 % of control | dose: 5.0 mg/kg/injection, schedule: Q01DX009 (ip), vehicle: saline 100 % of control | dose: 5.0 mg/kg/injection, schedule: Q04DX003 (ip), vehicle: saline 95 % of control

CCCN(CCC)C(C)C(O)c1cc2c(c3ccccc13)CCCC2 (centres undefined)
inactive: [13] 109 % of control | [14] 93 % of control

CCCCCCCCCCSCC(N)C(=O)OCC (centres undefined)
inactive: [5] 99 % of control | [6] 94 % of control

c1csc(C2=NCCC2)c1
inactive: [18] 100 % of control | [19] 102 % of control | [20] 102 % of control

CCOC(=O)c1sc2nc(C)cc(C)c2c1N
inactive: dose: 6.25 mg/kg/injection, schedule: Q01DX005 (ip), vehicle: saline with Tween-80 95 % of control | dose: 12.5 mg/kg/injection, schedule: Q01DX005 (ip), vehicle: saline with Tween-80 100 % of control | dose: 25.0 mg/kg/injection, schedule: Q01DX005 (ip), vehicle: saline with Tween-80 98 % of control

NC(Cc1ccc(OC(c2ccccc2)c2ccccc2)cc1)C(=O)O (centres undefined)
inactive: [8] 116 % of control | [9] 98 % of control | [5] 88 % of control | [6] 95 % of control | [7] 97 % of control

O=C(CCN1CCCC1)c1ccccc1
inactive: dose: 12.5 mg/kg/injection, schedule: Q01DX009 (ip), vehicle: saline 98 % of control | dose: 25.0 mg/kg/injection, schedule: Q01DX009 (ip), vehicle: saline 100 % of control | [15] 100 % of control

NC(=S)C(F)(F)F
inactive: dose: 75.0 mg/kg/injection, schedule: Q01DX001 (ip), vehicle: saline with Tween-80 103 % of control | dose: 150.0 mg/kg/injection, schedule: Q01DX001 (ip), vehicle: saline with Tween-80 113 % of control | dose: 300.0 mg/kg/injection, schedule: Q01DX001 (ip), vehicle: saline with Tween-80 103 % of control

COC(=O)CCC#N
inactive: [16] 97 % of control | [17] 109 % of control | dose: 400.0 mg/kg/injection, schedule: Q01DX009 (ip), vehicle: saline 107 % of control

CC1CCC2(NC1)OC1CC3C4CCC5CC(OC6OC(CO)C(OC7OC(CO)C(O)C(OC8OCC(O)C(O)C8O)C7OC7OC(CO)C(O)C(O)C7O)C(O)C6O)CCC5(C)C4CCC3(C)C1C2C (centres undefined)
inactive: dose: 3.12 mg/kg/injection, schedule: Q04DX003 (ip), vehicle: Klucel (hydroxypropylcellulose) (HPC) 102 % of control | dose: 6.25 mg/kg/injection, schedule: Q04DX003 (ip), vehicle: Klucel (hydroxypropylcellulose) (HPC) 100 % of control | dose: 12.5 mg/kg/injection, schedule: Q04DX003 (ip), vehicle: Klucel (hydroxypropylcellulose) (HPC) 100 % of control and 91 % of control | dose: 50.0 mg/kg/injection, schedule: Q04DX003 (ip), vehicle: Klucel (hydroxypropylcellulose) (HPC) 89 % of control and 93 % of control

CC(C)N1CCC(OC(=O)Nc2ccccc2)C1 (centres undefined)
inactive: [12] 100 % of control | [13] 99 % of control | [14] 98 % of control

CC1=N/C(=C\c2ccccc2O)C(=O)O1
inactive: [21] 104 % of control | [22] 98 % of control | [23] 98 % of control

COc1cc2c(cc1I)-c1c(cc(OC)c(OC)c1OC)CC[C@@H]2NC(C)=O
inactive: dose: 88.0 mg/kg/injection, schedule: Q01DX009 (ip), vehicle: saline with Tween-80 118 % of control | dose: 100.0 mg/kg/injection, schedule: Q01DX009 (ip), vehicle: saline sonified 95 % of control | [6] 95 % of control | dose: 100.0 mg/kg/injection, schedule: Q04DX003 (ip), vehicle: saline with Tween-80 100 % of control | [7] 100 % of control | dose: 200.0 mg/kg/injection, schedule: Q04DX003 (ip), vehicle: saline with Tween-80 100 % of control | dose: 400.0 mg/kg/injection, schedule: Q01DX009 (ip), vehicle: saline with Tween-80 104 % of control | dose: 400.0 mg/kg/injection, schedule: Q04DX003 (ip), vehicle: saline with Tween-80 90 % of control

O=NN(CC(=O)OCc1ccccc1)OCc1ccccc1
inactive: dose: 12.5 mg/kg/injection, schedule: Q01DX009 (ip), vehicle: other 101 % of control | [1] 104 % of control | [2] 102 % of control | [3] 108 % of control | [4] 100 % of control

Cn1c(=O)c2snnc2n(C)c1=O
inactive: dose: 100.0 mg/kg/injection, schedule: Q04DX003 (ip), vehicle: Klucel (hydroxypropylcellulose) (HPC) 107 % of control | dose: 200.0 mg/kg/injection, schedule: Q04DX003 (ip), vehicle: Klucel (hydroxypropylcellulose) (HPC) 104 % of control

CCCCC(CC)C(=O)OCCNC(=O)C(C)OC(=O)C(CC)CCCC (centres undefined)
inactive: dose: 25.0 mg/kg/injection, schedule: Q01DX005 (ip), vehicle: Klucel (hydroxypropylcellulose) (HPC) 105 % of control | [21] 102 % of control | [22] 95 % of control | [23] 105 % of control

COC(=O)C1=C(C(=O)OC)C2C=CC1C1C(Cl)C(Cl)C21 (centres undefined)
inactive: dose: 7.5 mg/kg/injection, schedule: Q01DX009 (ip), vehicle: saline with Tween-80 103 % of control | dose: 15.0 mg/kg/injection, schedule: Q01DX009 (ip), vehicle: saline with Tween-80 112 % of control | dose: 30.0 mg/kg/injection, schedule: Q01DX009 (ip), vehicle: saline with Tween-80 115 % of control | [6] 95 % of control | [7] 90 % of control

Cc1cc(C)nc(Nc2nnc(Nc3cc(C)cc(C)n3)c3ccccc23)c1
inactive: [18] 96 % of control | [19] 93 % of control | [20] 87 % of control

Cc1nc2cc(N(C)C)ccc2c(Cl)c1C(N)=O
inactive: dose: 15.0 mg/kg/injection, schedule: Q01DX005 (ip), vehicle: Klucel (hydroxypropylcellulose) (HPC) 100 % of control | dose: 30.0 mg/kg/injection, schedule: Q01DX005 (ip), vehicle: Klucel (hydroxypropylcellulose) (HPC) 99 % of control | dose: 60.0 mg/kg/injection, schedule: Q01DX005 (ip), vehicle: Klucel (hydroxypropylcellulose) (HPC) 100 % of control and 96 % of control

Cc1cccnc1I
inactive: [10] 98 % of control | [11] 99 % of control | dose: 240.0 mg/kg/injection, schedule: Q01DX005 (ip), vehicle: saline with Tween-80 101 % of control

CC1NNC(=S)NN1
inactive: dose: 15.0 mg/kg/injection, schedule: Q01DX005 (ip), vehicle: saline with Tween-80 101 % of control | dose: 30.0 mg/kg/injection, schedule: Q01DX005 (ip), vehicle: saline with Tween-80 101 % of control
